Laboratory results: US5100797A, “Fucosidase inhibitors” (priority 1989, dated 1992)

Columns and labels:
[1] = test system: α-glucosidase; conditions: Kite et al. 1988; cited from earlier work
[2] = test system: mammalian α-L-fucosidases; conditions: background statement; cited from earlier work
[3] = pKa of inhibitors; format: physicochemical
[4] = target: T1, β-D-galactosidase (Homo sapiens, UniProt P16278); test: Glycosidase specificity in human liver extract: β-D-galactosidase; format: biochemical; conditions: read-out: Other specificities (% inhibition at 1 mM): β-D-galactosidase, 1 mM compound
T1 construct: 4-umbelliferyl glycoside substrate
T1 sequence (P16278 29-677): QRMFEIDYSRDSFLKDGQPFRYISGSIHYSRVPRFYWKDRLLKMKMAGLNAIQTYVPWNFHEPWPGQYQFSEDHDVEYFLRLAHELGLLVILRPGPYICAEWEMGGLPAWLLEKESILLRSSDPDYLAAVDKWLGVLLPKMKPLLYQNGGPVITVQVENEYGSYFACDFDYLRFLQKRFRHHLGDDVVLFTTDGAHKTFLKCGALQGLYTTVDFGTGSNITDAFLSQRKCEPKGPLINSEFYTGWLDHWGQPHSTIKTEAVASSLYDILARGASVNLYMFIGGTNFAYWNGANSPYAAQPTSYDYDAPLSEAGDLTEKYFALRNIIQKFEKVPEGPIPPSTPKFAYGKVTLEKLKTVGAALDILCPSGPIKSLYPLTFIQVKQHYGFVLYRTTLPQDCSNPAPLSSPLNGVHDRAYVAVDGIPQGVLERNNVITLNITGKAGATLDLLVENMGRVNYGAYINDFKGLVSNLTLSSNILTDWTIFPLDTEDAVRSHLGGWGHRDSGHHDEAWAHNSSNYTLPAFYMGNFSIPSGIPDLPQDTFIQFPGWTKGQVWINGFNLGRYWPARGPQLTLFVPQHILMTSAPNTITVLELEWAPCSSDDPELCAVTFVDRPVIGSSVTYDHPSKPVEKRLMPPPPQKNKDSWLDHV
Method: (§1) Post-mortem human liver, which had been stored at -20° C. until required was homogenized in deionized water (50%, w/v) in a Potter-Elvehjem homogenizer and then centrifuged at 37,000 g for 30 min in an MSE 18 centrifuge. The resultant supernatant was used as the source of human glycosidases. A lyophilized extract of liver from Charonia lampas was obtained from Seikagaku Kogyo Co., Japan for the isolation of α-L-fucosidase by the published procedure of Iijima and Egami, J. Biochem. 70, 75-78 (1971).
(§2) The glycosidase activities in an extract of human liver were assayed by using the appropriate fluorigenic 4-umbelliferyl glycoside substrate (Koch-Light, Haverhill, Suffolk, U.K.) with a concentration of 0.5 mM at the optimal pH for each enzyme [Burditt et al., Biochem. J. 189, 467-473 (1980)]. The specificity of the inhibitors was determined by assaying the glycosidases in the presence of and absence of a 1 mM solution of each compound. The nature of the inhibition of human α-L-fucosidase, the value of Ki determined by using the Dixon graphical procedure and the effect of pH on the inhibition were investigated as described previously by Al Daher et al., Biochem. J. 258, 613-615 (1989). […]

[5] = target: T2, Bovine epididymal α-L-fucosidase (Bos taurus, UniProt Q2KIM0); test: Inhibition of bovine epididymal α-L-fucosidase (Lineweaver-Burk); format: biochemical; conditions: para-nitrophenyl-α-L-fucopyranoside; phosphate-citrate buffer pH 6.0; read-out: Ki (M) Bovine epididymis α-L-fucosidase
T2 construct: Bovine epididymal and Charonia lampas α-L-fucosidase were assayed; from tissue; host or cells: bovine epididymis
T2 sequence (Q2KIM0 23-468): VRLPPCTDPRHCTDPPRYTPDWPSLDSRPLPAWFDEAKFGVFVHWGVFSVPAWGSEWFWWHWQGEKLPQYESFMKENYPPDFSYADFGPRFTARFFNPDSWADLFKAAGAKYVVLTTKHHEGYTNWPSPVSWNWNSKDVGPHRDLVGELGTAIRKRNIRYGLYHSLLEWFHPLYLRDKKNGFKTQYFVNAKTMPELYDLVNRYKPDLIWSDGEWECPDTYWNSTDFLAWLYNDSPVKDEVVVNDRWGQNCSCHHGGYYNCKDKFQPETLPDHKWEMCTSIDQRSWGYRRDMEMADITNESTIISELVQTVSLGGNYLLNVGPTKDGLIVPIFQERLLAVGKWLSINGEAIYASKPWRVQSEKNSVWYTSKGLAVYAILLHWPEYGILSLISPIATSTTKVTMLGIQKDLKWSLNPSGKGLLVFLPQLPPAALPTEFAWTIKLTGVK
Method: (§3) The glycosidase activities in an extract of human liver were assayed by using the appropriate fluorigenic 4-umbelliferyl glycoside substrate (Koch-Light, Haverhill, Suffolk, U.K.) with a concentration of 0.5 mM at the optimal pH for each enzyme [Burditt et al., Biochem. J. 189, 467-473 (1980)]. The specificity of the inhibitors was determined by assaying the glycosidases in the presence of and absence of a 1 mM solution of each compound. The nature of the inhibition of human α-L-fucosidase, the value of Ki determined by using the Dixon graphical procedure and the effect of pH on the inhibition were investigated as described previously by Al Daher et al., Biochem. J. 258, 613-615 (1989). Bovine epididymal and Charonia lampas α-L-fucosidase were assayed using para-nitrophenyl-α-L-fucopyranoside as substrate in phosphate-citrate buffer (McIlvaine), pH 6.0, and 0.005 M-sodium acetate buffer, pH 4.5 containing 0.15 M NaCl, respectively. The Lineweaver-Burk graphical procedure and secondary plots of the slope against inhibitor concentration were used to determine the nature of inhibition and the values of Ki for these activities.

[6] = target: T3, human liver α-L-fucosidase (Homo sapiens, UniProt P04066); test: Inhibition of human liver α-L-fucosidase (4-umbelliferyl glycoside substrate, Dixon plot); format: biochemical; conditions: for fucosidase inhibition, in words: human liver α-L-fucosidase; for Ki: human liver extract, 4-umbelliferyl substrate 0.5 mM, Dixon graphical procedure
T3 construct: The resultant supernatant was used as the source of human glycosidases; from tissue; host or cells: post-mortem human liver, 37,000 g supernatant of homogenate
T3 sequence (P04066 32-466): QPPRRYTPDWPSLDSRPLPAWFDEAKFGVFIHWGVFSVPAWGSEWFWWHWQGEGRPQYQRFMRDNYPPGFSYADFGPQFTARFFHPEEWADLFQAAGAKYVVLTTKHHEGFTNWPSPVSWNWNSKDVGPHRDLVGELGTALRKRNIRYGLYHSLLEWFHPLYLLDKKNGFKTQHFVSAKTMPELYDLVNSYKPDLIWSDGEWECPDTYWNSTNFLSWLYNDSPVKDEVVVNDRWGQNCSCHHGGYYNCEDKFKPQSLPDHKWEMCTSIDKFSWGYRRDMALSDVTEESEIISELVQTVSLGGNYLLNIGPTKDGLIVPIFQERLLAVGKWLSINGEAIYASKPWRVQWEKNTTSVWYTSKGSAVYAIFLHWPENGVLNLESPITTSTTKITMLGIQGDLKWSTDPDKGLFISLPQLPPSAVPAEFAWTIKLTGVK
Method: Post-mortem human liver, which had been stored at -20° C. until required was homogenized in deionized water (50%, w/v) in a Potter-Elvehjem homogenizer and then centrifuged at 37,000 g for 30 min in an MSE 18 centrifuge. The resultant supernatant was used as the source of human glycosidases.
The specificity of the inhibitors was determined by assaying the glycosidases in the presence of and absence of a 1 mM solution of each compound. […] The Lineweaver-Burk graphical procedure and secondary plots of the slope against inhibitor concentration were used to determine the nature of inhibition and the values of Ki for these activities.

[7] = target: Charonia lampas α-L-fucosidase; test: Inhibition of Charonia lampas α-L-fucosidase (Lineweaver-Burk); format: biochemical; conditions: para-nitrophenyl-α-L-fucopyranoside; sodium acetate buffer pH 4.5, 0.15 M NaCl; read-out: Ki (M) C. lampas α-L-fucosidase
Method: as §1, §3

[8] = test system: N-acetyl-β-D-hexosaminidase; test: Glycosidase specificity in human liver extract: N-acetyl-β-D-hexosaminidase; format: biochemical; conditions: 1 mM compound
Method: as §1, §3

[9] = target: T4, α-D-mannosidase (Homo sapiens, UniProt O00754); test: Glycosidase specificity in human liver extract: α-D-mannosidase; format: biochemical
T4 construct: The resultant supernatant was used as the source of human glycosidases; from tissue; host or cells: post-mortem human liver, 37,000 g supernatant of homogenate
T4 sequence (O00754 50-601 limits assumed): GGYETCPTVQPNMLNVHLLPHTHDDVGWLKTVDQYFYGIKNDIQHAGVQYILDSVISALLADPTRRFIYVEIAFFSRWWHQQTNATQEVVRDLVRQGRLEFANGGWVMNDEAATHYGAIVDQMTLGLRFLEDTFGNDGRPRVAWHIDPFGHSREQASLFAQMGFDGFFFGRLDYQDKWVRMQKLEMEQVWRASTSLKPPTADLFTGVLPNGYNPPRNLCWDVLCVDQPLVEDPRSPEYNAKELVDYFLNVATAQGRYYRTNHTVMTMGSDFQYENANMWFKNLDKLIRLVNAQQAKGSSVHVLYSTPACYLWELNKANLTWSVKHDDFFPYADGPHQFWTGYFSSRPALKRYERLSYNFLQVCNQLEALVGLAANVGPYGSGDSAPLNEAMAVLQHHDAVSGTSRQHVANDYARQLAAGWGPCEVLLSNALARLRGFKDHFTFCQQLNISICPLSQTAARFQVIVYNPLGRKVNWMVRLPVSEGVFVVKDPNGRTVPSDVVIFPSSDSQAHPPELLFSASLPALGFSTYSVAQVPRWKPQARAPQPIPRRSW
T4 sequence (O00754 602-882 limits assumed): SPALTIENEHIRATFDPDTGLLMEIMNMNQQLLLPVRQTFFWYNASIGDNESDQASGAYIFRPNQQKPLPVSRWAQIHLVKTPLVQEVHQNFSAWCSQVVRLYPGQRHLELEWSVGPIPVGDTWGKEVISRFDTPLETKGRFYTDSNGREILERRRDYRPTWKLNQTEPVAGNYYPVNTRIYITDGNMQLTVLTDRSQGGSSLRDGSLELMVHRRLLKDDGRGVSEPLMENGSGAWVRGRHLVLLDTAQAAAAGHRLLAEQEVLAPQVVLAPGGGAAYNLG
T4 sequence (O00754 883-1011 limits assumed): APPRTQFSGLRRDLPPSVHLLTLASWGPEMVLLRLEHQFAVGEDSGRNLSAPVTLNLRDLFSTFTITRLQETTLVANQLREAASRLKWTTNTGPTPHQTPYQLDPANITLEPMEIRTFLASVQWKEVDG
Method: as §1, §2

| Ki [5] [M] | Ki [7] [M] | Ki [6] [nM] | Other specificities (% inhibition at 1 mM): N-acetyl-β-D-hexosaminidase [8] [%] | SMILES | pKa [3] | fucosidase inhibition, in words [6] | further results |
| --- | --- | --- | --- | --- | --- | --- | --- |
| – | – | – | – | OC[C@H]1NC[C@H](O)[C@@H](O)[C@@H]1O [Compound 1, deoxynojirimycin] | – | – | inhibition of α-glucosidase activity, in words [1]: potent inhibitors of α-glucosidase activity |
| – | – | – | – | OC[C@H]1N[C@H](CO)[C@@H](O)[C@H](O)[C@H]1O [Compound 2, α-homonojirimycin] | – | – | inhibition of α-glucosidase activity, in words [1]: potent inhibitors of α-glucosidase activity |
| – | – | – | – | C[C@@H]1NC[C@@H](O)[C@H](O)[C@@H]1O [Compound 4, 1,5-Dideoxy-1,5-imino-L-fucitol] | – | – | inhibition of mammalian α-L-fucosidases, in words [2]: very powerful and highly specific inhibitor |
| 2e-06 | 5.8e-07 | 70 | 36 | CC[C@@H]1N[C@H](CO)[C@@H](O)[C@H](O)[C@@H]1O [Compound 8, β-1-C-Ethyl Deoxymannojirimycin] | 7.8 | very powerful fucosidase inhibitor | – |
| 5.5e-06 | 0.002 | 1000 | 50 | OC[C@H]1N[C@@H](c2ccccc2)[C@@H](O)[C@@H](O)[C@@H]1O [Compound 9, β-1-C-Phenyl Deoxymannojirimycin] | 6.3 | more potent fucosidase inhibitor than is DMJ (10) | – |
| – | – | – | – | OC[C@H]1NC[C@@H](O)[C@@H](O)[C@@H]1O [Compound 10, deoxymannojirimycin] | 7.2 | – | inhibition of mannosidase activity, in words [9]: showed any inhibition of mannosidase activity; inhibition at 1000 µM ([9]; read-out: Other specificities (% inhibition at 1 mM): α-D-mannosidase, human liver extract, 1 mM compound): 64% |

| SMILES | Ki [5] [M] | Ki [7] [M] | Ki [6] [nM] | Other specificities (% inhibition at 1 mM): N-acetyl-β-D-hexosaminidase [8] [%] | pKa [3] | fucosidase inhibition, in words [6] | further results |
| --- | --- | --- | --- | --- | --- | --- | --- |
| C[C@@H]1N[C@H](CO)[C@@H](O)[C@H](O)[C@@H]1O [Compound 7, 2,6-Imino-2,6,7-trideoxy-L-glycero-D-mannohepitol] | 2e-08 | 1.4e-07 | – | – | 7.1 | did not diminish the inhibition of α-L-fucosidase | inhibition at 1000 µM [4]: 27% |
| C[C@H]1[C@@H](O)[C@@H](O)[C@H](O)CN1C [MeFDJ, reference compound] | – | – | 50 | 59 | 7.8 | – | – |
